Test results published in patent publication US8263598B2, “Substituted sulfonamide compounds” (Gruenenthal GmbH, priority 2008, dated 2012).

Key:
[1] = biological target: T1, B1R receptor of rats (rB1R) (Rattus norvegicus, UniProt P97583); experiment: FLIPR Ca2+ assay on rat bradykinin 1 receptor (CHO K1 rB1R cells); type: cell-based; conditions: test substance 10 μM; CHO K1 cells with B1R gene of rats; agonist Des-Arg9-bradykinin 100 nM; compared to maximum achievable inhibition
T1 construct: host or cells: CHO K1 cells
T1 sequence (P97583 1-337): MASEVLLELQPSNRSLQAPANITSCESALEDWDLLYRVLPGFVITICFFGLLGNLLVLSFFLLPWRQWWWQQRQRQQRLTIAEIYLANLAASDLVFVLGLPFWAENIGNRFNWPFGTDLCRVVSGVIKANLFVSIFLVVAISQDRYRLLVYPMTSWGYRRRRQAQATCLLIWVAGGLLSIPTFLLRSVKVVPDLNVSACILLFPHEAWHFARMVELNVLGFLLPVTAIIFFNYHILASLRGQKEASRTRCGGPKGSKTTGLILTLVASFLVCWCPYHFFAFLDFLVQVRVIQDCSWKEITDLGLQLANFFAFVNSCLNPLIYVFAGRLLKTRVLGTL
Procedure, shortened: (§1)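 Values are percent inhibition of agonist-evoked Ca²⁺ influx, measured by Fluo-4 fluorescence peak in FLIPR relative to maximum achievable inhibition. Compound at 10 μM was preincubated 10 min on B1R-transfected CHO K1 cells before challenge with 0.5 nM Lys-Des-Arg9-bradykinin (human) or 100 nM Des-Arg9-bradykinin (rat).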

[2] = biological target: T2, human B1R receptor (hB1R) (Homo sapiens, UniProt P46663); experiment: FLIPR Ca2+ assay on human bradykinin 1 receptor (CHO K1 hB1R cells); type: cell-based; conditions: test substance 10 μM; CHO K1 cells with human B1R gene; agonist Lys-Des-Arg9-bradykinin 0.5 nM; compared to maximum achievable inhibition
T2 construct: host or cells: CHO K1 cells
T2 sequence (P46663 1-353): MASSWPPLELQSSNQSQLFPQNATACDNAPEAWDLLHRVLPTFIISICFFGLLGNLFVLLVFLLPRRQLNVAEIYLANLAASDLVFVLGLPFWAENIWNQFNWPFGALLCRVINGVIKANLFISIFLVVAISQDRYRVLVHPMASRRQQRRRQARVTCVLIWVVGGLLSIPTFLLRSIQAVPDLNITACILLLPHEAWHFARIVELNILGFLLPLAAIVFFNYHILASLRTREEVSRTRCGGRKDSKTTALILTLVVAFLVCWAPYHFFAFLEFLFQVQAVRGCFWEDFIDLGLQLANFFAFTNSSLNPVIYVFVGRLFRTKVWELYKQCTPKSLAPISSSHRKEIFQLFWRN
Procedure, shortened: as §1

| inhibition at 10 µM [1] | inhibition at 10 µM [2] | Structure (SMILES) |
| --- | --- | --- |
| 97% | 47% | COc1cc(C)c(S(=O)(=O)N(CCOCC(=O)N2CCn3cccc3C2c2ccccc2)CC(C)C)c(C)c1C (centres unmarked) [Example 23, N-isobutyl-4-methoxy-2,3,6-trimethyl-N-(2-(2-oxo-2-(1-phenyl-3,4-dihydropyrrolo[1,2-a]pyrazin-2(1H)-yl)ethoxy)ethyl)benzenesulfonamide] |
| 42% | 58% | COc1c(C)cc(S(=O)(=O)N(C)CCOCC(=O)N2CCn3cccc3C2c2ccc(C)c(C)c2)c(C)c1C (centres unmarked) [Example 34, N-(2-(2-(1-(3,4-dimethylphenyl)-3,4-dihydropyrrolo[1,2-a]pyrazin-2(1H)-yl)-2-oxoethoxy)ethyl)-4-methoxy-N,2,3,5-tetramethylbenzenesulfonamide] |
| 100% | 100% | COc1c(C)cc(S(=O)(=O)N(C)CCOCC(=O)N2CCn3c(CN(C)C)ccc3C2c2ccccc2)c(C)c1C (centres unmarked) [Example 105, N-(2-(2-(6-((dimethylamino)methyl)-1-phenyl-3,4-dihydropyrrolo[1,2-a]pyrazin-2(1H)-yl)-2-oxoethoxy)ethyl)-4-methoxy-N,2,3,5-tetramethylbenzene-sulfonamide] |
| 99% | 101% | COc1cc(C)c(S(=O)(=O)N(C)CCOCC(=O)N2CCn3c(CN4CCOCC4)ccc3C2)c(C)c1 [Example 7, 4-methoxy-N,2,6-trimethyl-N-(2-(2-(6-(morpholinomethyl)-3,4-dihydropyrrolo[1,2-a]pyrazin-2(1H)-yl)-2-oxoethoxy)ethyl)benzenesulfonamide] |
| 42% | 80% | CCC1c2cccn2CCN1C(=O)COCCN(C)S(=O)(=O)c1cc(C)c(OC)c(C)c1C (centres unmarked) [Example 114, N-(2-(2-(1-ethyl-3,4-dihydropyrrolo[1,2-a]pyrazin-2(1H)-yl)-2-oxoethoxy)ethyl)-4-methoxy-N,2,3,5-tetramethylbenzenesulfonamide] |
| 66% | 47% | COc1cc(C)c(S(=O)(=O)N(C)CCOCC(=O)N2CCn3cccc3C2c2ccc(C(C)(C)C)cc2)c(C)c1C (centres unmarked) [Example 90, N-(2-(2-(1-(4-tert-butylphenyl)-3,4-dihydropyrrolo[1,2-a]pyrazin-2(1H)-yl)-2-oxoethoxy)ethyl)-4-methoxy-N,2,3,6-tetramethylbenzenesulfonamide] |
| 98% | 78% | O=C(CC(NS(=O)(=O)c1ccc2ccccc2c1)c1ccccc1)N1CCn2c(Cc3ccncc3)ccc2C1 (centres unmarked) [Example 169, N-(3-Oxo-1-phenyl-3-(6-(pyridin-4-ylmethyl)-3,4-dihydropyrrolo[1,2-a]pyrazin-2(1H)-yl)propyl)naphthalene-2-sulfonamide] |
| 102% | 102% | CCC1c2cccn2CCN1C(=O)COCCN(C)S(=O)(=O)c1c(C)cc(OC)c(C)c1C (centres unmarked) [Example 152, N-(2-(2-(1-ethyl-3,4-dihydropyrrolo[1,2-a]pyrazin-2(1H)-yl)-2-oxoethoxy)ethyl)-4-methoxy-N,2,3,6-tetramethylbenzenesulfonamide] |
| 101% | 101% | COc1c(C)cc(S(=O)(=O)N(C)CCOCC(=O)N2CCn3c(CN(C)C)ccc3C2c2cccs2)c(C)c1C (centres unmarked) [Example 112, N-(2-(2-(6-((dimethylamino)methyl)-1-(thiophen-2-yl)-3,4-dihydropyrrolo[1,2-a]pyrazin-2(1H)-yl)-2-oxoethoxy)ethyl)-4-methoxy-N,2,3,5-tetramethylbenzene-sulfonamide] |
| 97% | 91% | CCCC1c2cccn2CCN1C(=O)COCCN(C)S(=O)(=O)c1cc(C)c(OC)c(C)c1C (centres unmarked) [Example 115, 4-methoxy-N,2,3,5-tetramethyl-N-(2-(2-oxo-2-(1-propyl-3,4-dihydropyrrolo[1,2-a]pyrazin-2(1H)-yl)ethoxy)ethyl)benzenesulfonamide] |
| 102% | 102% | CCCC1c2cccn2CCN1C(=O)COCCN(C)S(=O)(=O)c1c(C)cc(C)cc1C (centres unmarked) [Example 146, N,2,4,6-tetramethyl-N-(2-(2-oxo-2-(1-propyl-3,4-dihydropyrrolo[1,2-a]pyrazin-2(1H)-yl)ethoxy)ethyl)benzenesulfonamide] |
| 93% | 103% | CCC1c2ccc(CN(C)C)n2CCN1C(=O)COCCN(C)S(=O)(=O)c1cc(C)c(OC)c(C)c1C (centres unmarked) [Example 113, N-(2-(2-(6-((dimethylamino)methyl)-1-ethyl-3,4-dihydropyrrolo[1,2-a]pyrazin-2(1H)-yl)-2-oxoethoxy)ethyl)-4-methoxy-N,2,3,5-tetramethylbenzenesulfonamide] |
| 92% | 84% | CCCCC1c2ccc(CN(C)C)n2CCN1C(=O)COCCN(Cc1ccccc1)S(=O)(=O)c1c(C)cc(OC)c(C)c1C (centres unmarked) [Example 120, N-benzyl-N-(2-(2-(1-butyl-6-((dimethylamino)methyl)-3,4-dihydropyrrolo[1,2-a]pyrazin-2(1H)-yl)-2-oxoethoxy)-ethyl)-4-methoxy-2,3,6-trimethyl-benzenesulfonamide] |
| 103% | 104% | CCCC1c2cccn2CCN1C(=O)COCCN(C)S(=O)(=O)c1c(C)cc(OC)cc1C (centres unmarked) [Example 136, 4-methoxy-N,2,6-trimethyl-N-(2-(2-oxo-2-(1-propyl-3,4-dihydropyrrolo[1,2-a]-pyrazin-2(1H)-yl)ethoxy)ethyl)benzenesulfonamide] |
| 102% | 103% | COc1cc(C)c(S(=O)(=O)N(CCOCC(=O)N2CCn3c(CN4CCCCC4)ccc3C2c2ccccc2)CC(C)C)c(C)c1C (centres unmarked) [Example 93, N-isobutyl-4-methoxy-2,3,6-trimethyl-N-(2-(2-oxo-2-(1-phenyl-6-(piperidin-1-ylmethyl)-3,4-dihydropyrrolo[1,2-a]pyrazin-2(1H)-yl)ethoxy)ethyl)benzene-sulfonamide] |
| 98% | 95% | COc1c(C)cc(S(=O)(=O)N(C)CCOCC(=O)N2CCn3cccc3C2C(C)(C)C)c(C)c1C (centres unmarked) [Example 27, N-(2-(2-(1-tert-butyl-3,4-dihydropyrrolo[1,2-a]pyrazin-2(1H)-yl)-2-oxoethoxy)ethyl)-4-methoxy-N,2,3,5-tetramethylbenzenesulfonamide] |
| 100% | 97% | COc1cc(C)c(S(=O)(=O)N(C)CCOCC(=O)N2CCn3c(CCCN4CCN(C)CC4)ccc3C2)c(C)c1 [Example 12, 4-methoxy-N,2,6-trimethyl-N-(2-(2-(6-(3-(4-methylpiperazin-1-yl)propyl)-3,4-dihydropyrrolo[1,2-a]pyrazin-2(1H)-yl)-2-oxoethoxy)ethyl)benzenesulfonamide] |
| 99% | 101% | COc1cc(C)c(S(=O)(=O)N(C)CCOCC(=O)N2CCn3cccc3C2C)c(C)c1 (centres unmarked) [Example 53, 4-methoxy-N,2,6-trimethyl-N-(2-(2-(1-methyl-3,4-dihydropyrrolo[1,2-a]pyrazin-2(1H)-yl)-2-oxoethoxy)ethyl)benzenesulfonamide] |
| 102% | 101% | COc1cc(C)c(S(=O)(=O)N(CCOCC(=O)N2CCn3c(CN(C)C)ccc3C2c2ccccc2)Cc2ccccc2)c(C)c1 (centres unmarked) [Example 126, N-benzyl-N-(2-(2-(6-((dimethylamino)methyl)-1-phenyl-3,4-dihydropyrrolo[1,2-a]pyrazin-2(1H)-yl)-2-oxoethoxy)ethyl)-4-methoxy-2,6-dimethylbenzenesulfonamide] |
| 58% | 89% | COc1cc(C)c(S(=O)(=O)N(C)CCOCC(=O)N2CCn3c(CN(C)C)ccc3C2c2ccccc2)c(C)c1C (centres unmarked) [Example 1, N-(2-(2-(6-((dimethylamino)methyl)-1-phenyl-3,4-dihydropyrrolo[1,2-a]pyrazin-2(1H)-yl)-2-oxoethoxy)ethyl)-4-methoxy-N,2,3,6-tetramethylbenzene-sulfonamide] |
| 98% | 101% | COc1cccc(C2c3cccn3CCN2C(=O)COCCN(C)S(=O)(=O)c2c(C)cc(OC)cc2C)c1 (centres unmarked) [Example 62, 4-methoxy-N-(2-(2-(1-(3-methoxyphenyl)-3,4-dihydropyrrolo[1,2-a]pyrazin-2(1H)-yl)-2-oxoethoxy)ethyl)-N,2,6-trimethylbenzenesulfonamide] |
| 102% | 98% | COc1c(C)cc(S(=O)(=O)N(C)CCOCC(=O)N2CCn3c(CN4CCCCC4)ccc3C2c2ccccc2)c(C)c1C (centres unmarked) [Example 107, 4-methoxy-N,2,3,5-tetramethyl-N-(2-(2-oxo-2-(1-phenyl-6-(piperidin-1-ylmethyl)-3,4-dihydropyrrolo[1,2-a]pyrazin-2(1H)-yl)ethoxy)ethyl)benzene-sulfonamide] |
